Results: ChEMBL document CHEMBL1132027, “Trifluoromethyl ketone inhibitors of fatty acid amide hydrolase: a probe of structural and conformational features contributing to inhibition” (Bioorg Med Chem Lett, 1999)

Tests used:
[1] = target: T1, Fatty-acid amide hydrolase 1 (Rattus norvegicus, UniProt P97612); experiment: Inhibitory concentration against Fatty-acid amide hydrolase (FAAH) in rat liver
T1 sequence (P97612 whole entry): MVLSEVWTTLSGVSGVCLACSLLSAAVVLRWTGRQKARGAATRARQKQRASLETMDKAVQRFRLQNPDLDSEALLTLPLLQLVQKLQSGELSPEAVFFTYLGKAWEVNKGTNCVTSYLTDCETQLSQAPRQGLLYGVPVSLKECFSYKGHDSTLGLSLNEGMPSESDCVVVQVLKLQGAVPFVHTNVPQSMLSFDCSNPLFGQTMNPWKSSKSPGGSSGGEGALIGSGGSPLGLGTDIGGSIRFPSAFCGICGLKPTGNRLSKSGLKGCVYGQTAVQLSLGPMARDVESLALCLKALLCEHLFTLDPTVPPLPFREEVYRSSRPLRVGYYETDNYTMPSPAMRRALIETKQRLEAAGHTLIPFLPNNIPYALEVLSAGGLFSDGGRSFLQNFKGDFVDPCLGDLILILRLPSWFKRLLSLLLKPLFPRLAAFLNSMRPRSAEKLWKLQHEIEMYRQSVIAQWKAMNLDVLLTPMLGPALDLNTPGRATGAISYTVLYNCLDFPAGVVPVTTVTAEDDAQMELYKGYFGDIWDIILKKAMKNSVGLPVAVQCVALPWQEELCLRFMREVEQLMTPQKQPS

[2] = target: T1, Fatty-acid amide hydrolase 1; experiment: Inhibitory constant against Fatty-acid amide hydrolase (FAAH) in rat liver; type: tissue-based

## CCc1cc2cc3ccccc3cc2cc1CC(=O)C(F)(F)F
[1]
  IC50: > 100000 nM
[2]
  Ki: > 100000 nM

## CCCCOC[C@@H]1CC=CC[C@H]1COCCCC(=O)C(F)(F)F
[1]
  IC50: 2400 nM
[2]
  Ki: 440 nM

## CCCCCCCC/C=C/CCCCCCCC(=O)C(F)(F)F
[1]
  IC50: 780 nM
[2]
  Ki: 170 nM

## CCCCCCc1cccc(CCCCCCC(=O)C(F)(F)F)c1
[1]
  IC50: 760 nM
[2]
  Ki: 140 nM

## O=C(CCCCCc1ccccc1)C(F)(F)F
[1]
  IC50: 840 nM
[2]
  Ki: 170 nM

## CCCCOC[C@@H]1CCCC[C@H]1COCCCC(=O)C(F)(F)F
[1]
  IC50: 9700 nM
[2]
  Ki: 1200 nM

## CCCCCCCC/C=C\CCCCCCCC(=O)C(F)(F)F
[1]
  IC50: 460 nM
[2]
  Ki: 82 nM

## CCCCCCCCc1ccccc1CCCCCCCC(=O)C(F)(F)F
[1]
  IC50: 2500 nM
[2]
  Ki: 320 nM

## CCCCCCCCCCCCCC(=O)C(F)(F)F
[1]
  IC50: 2300 nM
[2]
  Ki: 490 nM

## CCCCCCCCCCCCCCCCCC(=O)C(F)(F)F
[1]
  IC50: 1200 nM
[2]
  Ki: 240 nM

## CCCCCCCCCC(=O)C(F)(F)F
[1]
  IC50: 600 nM
[2]
  Ki: 130 nM

## CCCCCCCCCCCC(=O)C(F)(F)F
[1]
  IC50: 130 nM
[2]
  Ki: 140 nM

## CCCCCCC(=O)C(F)(F)F
[1]
  IC50: 52800 nM
[2]
  Ki: 10700 nM

## CCCCc1cc2ccccc2cc1CCCC(=O)C(F)(F)F
[1]
  IC50: 30100 nM
[2]
  Ki: 4400 nM

## CCCCCCCc1ccc(CCCCCCC(=O)C(F)(F)F)cc1
[1]
  IC50: 590 nM
[2]
  Ki: 96 nM

## CCCCOC[C@H]1CC=CC[C@H]1COCCCC(=O)C(F)(F)F
[1]
  IC50: 3000 nM
[2]
  Ki: 570 nM

## O=C(CCCCCCc1ccccc1)C(F)(F)F
[1]
  IC50: 450 nM
[2]
  Ki: 100 nM

## O=C(CCCCCCCc1ccccc1)C(F)(F)F
[1]
  IC50: 120 nM
[2]
  Ki: 25 nM

## CCCCCCc1ccccc1CCCCCC(=O)C(F)(F)F
[1]
  IC50: 13100 nM
[2]
  Ki: 2800 nM

## CCCCCCCC/C=C\CCCCCCCC(C)=O
[1]
  IC50: > 100000 nM
[2]
  Ki: > 100000 nM

## CCCCCC(=O)C(F)(F)F
[1]
  IC50: 185000 nM
[2]
  Ki: 26900 nM

## CCCCCCCC(=O)C(F)(F)F
[1]
  IC50: 6600 nM
[2]
  Ki: 1200 nM

## CCCCOC[C@H]1CCCC[C@H]1COCCCC(=O)C(F)(F)F
[1]
  IC50: 5700 nM
[2]
  Ki: 780 nM
